Measured values from US20190374554A1, “USE OF OXYGENATED CHOLESTEROL SULFATES (OCS) TO TREAT INFLAMMATORY SKIN DISEASE AND SKIN LESIONS” (Virginia Commonwealth University, priority 2016, published 2019).
“And” between values parts separate entries of the source, which are not always exact repeats. Identical values can stand only once.

Experiments:
[1] = Infusion compatibility: 25HC3S diluted in 5% dextrose infusion bag and eluted through infusion sets (potency, osmolality, pH, appearance); format: physicochemical; details: for 24 Hours at 2-8° C. Concentration / 24 Hours at 2-8° C. Osmolality / 24 Hours at 2-8° C. pH / 24 Hours at 25° C. % Remaining Compared to T = 0 / 24 Hours at 25° C. Concentration / 24 Hours at 25° C. Osmolality / 24 Hours at 25° C. pH / T = 0 Conc. / T = 0 Osmolality / T = 0 pH: 5% dextrose bag
Protocol: A physical and chemical compatibility study was conducted at a 30 mg, 48 mg and 300 mg 25HC3S dose in 5% dextrose and 0.9% sodium chloride infusion bags. Descriptions of the two kinds of infusion sets tested with 25HC3S product diluted in 5% dextrose and 0.9% sodium chloride are listed in Table 15. The tubing in catalog number 2H8480 infusion set was composed of polyvinylchloride (PVC), while the tubing in catalog number 2C8858 was polyethylene lined except for a short pump segment (approximately 12 inches) which was composed of PVC.
25HC3S for Injection and Vehicle for 25HC3S for Injection, that had been stored at 2-8° C. for approximately 16 months, were used for the compatibility study. After constitution, 30 mg (1.0 mL of constituted product), 48 mg (1.6 mL of constituted product) or 300 mg (10 mL of constituted product) were added to 100 mL infusion bags of 5% dextrose and 0.9% sodium chloride, mixed thoroughly, and stored for 24 hours at room temperature and at 2-8° C. […] Taking into consideration the overfill per infusion bag and the additional volume introduced by adding the constituted 25HC3S product to each bag, the expected concentrations of 25HC3S were 0.28 mg/mL, 0.44 mg/mL, and 2.56 mg/mL in the infusion bags. Two kinds of infusion sets were then attached to the drug containing infusion bags, and the entire contents were eluted through the infusion sets at approximately 50 mL/hour at room temperature. Samples were collected from the 25HC3S prepared infusion bags at T=0 and at 24 hours, and from the total eluent passed through the infusion sets, and tested for 25HC3S concentration using HPLC. Solution visual appearance, osmolality (using method USP<785>), and pH (using method USP<791>) were also measured on the collected samples.

Hannover Wistar rats = experiment: Acute single dose intramuscular (IM) injection study in rats; format: in vivo; details: minimal to moderate, drug-treated vs vehicle
Protocol: For the acute single dose study, Hannover Wistar rats (n=5/sex/dose group) received a single IM injection followed by 2 and 14 day observation periods. The solution that was tested included 30 mg/mL of 25HC3S sodium salt in vehicle (250 mg/mL hydroxypropyl-β-cyclodextrin in 10 mM sodium phosphate buffer in sterile water). Dose levels of 0 (vehicle), 3, 10 and 30 mg/kg of 25HC3S sodium salt were administered in dose volumes of 1.0, 0.1, 0.3 and 1.0 mL/kg. […] The changes were less severe (minimal only) after 14 days, indicating partial recovery; no clear effect of the presence of 25HC3S or vehicle volume was observed.

[2] = 5% dextrose, approx. 0.28 mg/mL, bag 24 h at 2-8° C., Baxter 2C8858
[3] = 5% dextrose, approx. 0.28 mg/mL, bag 24 h at 2-8° C., Baxter 2H8480
[4] = 5% dextrose, approx. 0.28 mg/mL, bag 24 h at 25° C., Baxter 2C8858
[5] = 5% dextrose, approx. 0.28 mg/mL, bag 24 h at 25° C., Baxter 2H8480
[6] = 5% dextrose, approx. 0.44 mg/mL, bag 24 h at 2-8° C., Baxter 2C8858
[7] = 5% dextrose, approx. 0.44 mg/mL, bag 24 h at 2-8° C., Baxter 2H8480
[8] = 5% dextrose, approx. 0.44 mg/mL, bag 24 h at 25° C., Baxter 2C8858
[9] = 5% dextrose, approx. 0.44 mg/mL, bag 24 h at 25° C., Baxter 2H8480
[10] = 5% dextrose, approx. 2.56 mg/mL, bag 24 h at 2-8° C., Baxter 2C8858
[11] = 5% dextrose, approx. 2.56 mg/mL, bag 24 h at 2-8° C., Baxter 2H8480
[12] = 5% dextrose, approx. 2.56 mg/mL, bag 24 h at 25° C., Baxter 2C8858
[13] = 5% dextrose, approx. 2.56 mg/mL, bag 24 h at 25° C., Baxter 2H8480
[14] = dextrose drug containing solutions

C[C@H](CCCC(C)(C)O)[C@H]1CC[C@H]2[C@@H]3CC=C4C[C@@H](OS(=O)(=O)[O-])CC[C@]4(C)[C@H]3CC[C@]12C.[Na+] [Formulation 25HC3S, 5-cholesten-3, 25-diol, 3-sulfate]
24 Hours at 2-8° C. Concentration ([1]; approx. 0.28 mg/mL 25HC3S): 0.280 mg/mL
24 Hours at 2-8° C. Osmolality ([1]; approx. 0.28 mg/mL 25HC3S): 250 mmol/kg and 253 mmol/kg
24 Hours at 2-8° C. pH ([1]; approx. 0.28 mg/mL 25HC3S): 7.09 and 7.04
24 Hours at 25° C. % Remaining Compared to T = 0 ([1]; approx. 0.28 mg/mL 25HC3S): (100.0%)
24 Hours at 25° C. Concentration ([1]; approx. 0.28 mg/mL 25HC3S): 0.276 mg/mL and 0.277 mg/mL
24 Hours at 25° C. Osmolality ([1]; approx. 0.28 mg/mL 25HC3S): 252 mmol/kg and 249 mmol/kg
24 Hours at 25° C. pH ([1]; approx. 0.28 mg/mL 25HC3S): 7.12 and 7.05
T = 0 Conc. ([1]; approx. 0.28 mg/mL 25HC3S): 0.276 mg/mL and 0.277 mg/mL and 0.280 mg/mL and 0.279 mg/mL
T = 0 Osmolality ([1]; approx. 0.28 mg/mL 25HC3S): 247 mmol/kg and 250 mmol/kg and 251 mmol/kg
T = 0 pH ([1]; approx. 0.28 mg/mL 25HC3S): 7.09 and 7.03 and 7.10 and 7.04
24 Hours at 2-8° C. Concentration ([1]; approx. 0.44 mg/mL 25HC3S): 0.438 mg/mL and 0.440 mg/mL
24 Hours at 2-8° C. Osmolality ([1]; approx. 0.44 mg/mL 25HC3S): 254 mmol/kg and 257 mmol/kg
24 Hours at 2-8° C. pH ([1]; approx. 0.44 mg/mL 25HC3S): 6.96 and 6.93
24 Hours at 25° C. % Remaining Compared to T = 0 ([1]; approx. 0.44 mg/mL 25HC3S): (100.0%)
24 Hours at 25° C. Concentration ([1]; approx. 0.44 mg/mL 25HC3S): 0.447 mg/mL and 0.442 mg/mL
24 Hours at 25° C. Osmolality ([1]; approx. 0.44 mg/mL 25HC3S): 256 mmol/kg and 253 mmol/kg
24 Hours at 25° C. pH ([1]; approx. 0.44 mg/mL 25HC3S): 6.91 and 6.90
T = 0 Conc. ([1]; approx. 0.44 mg/mL 25HC3S): 0.447 mg/mL and 0.442 mg/mL and 0.439 mg/mL
T = 0 Osmolality ([1]; approx. 0.44 mg/mL 25HC3S): 255 mmol/kg and 254 mmol/kg and 256 mmol/kg
T = 0 pH ([1]; approx. 0.44 mg/mL 25HC3S): 6.83 and 6.81 and 6.82 and 6.88
24 Hours at 2-8° C. Concentration ([1]; approx. 2.56 mg/mL 25HC3S): 2.550 mg/mL and 2.530 mg/mL
24 Hours at 2-8° C. Osmolality ([1]; approx. 2.56 mg/mL 25HC3S): 246 mmol/kg and 251 mmol/kg
24 Hours at 2-8° C. pH ([1]; approx. 2.56 mg/mL 25HC3S): 6.11 and 6.14
24 Hours at 25° C. Concentration ([1]; approx. 2.56 mg/mL 25HC3S): 2.470 mg/mL and 2.520 mg/mL
24 Hours at 25° C. Osmolality ([1]; approx. 2.56 mg/mL 25HC3S): 257 mmol/kg and 250 mmol/kg
24 Hours at 25° C. pH ([1]; approx. 2.56 mg/mL 25HC3S): 6.12 and 6.06
T = 0 Conc. ([1]; approx. 2.56 mg/mL 25HC3S): 2.500 mg/mL and 2.510 mg/mL and 2.530 mg/mL and 2.525 mg/mL
T = 0 Osmolality ([1]; approx. 2.56 mg/mL 25HC3S): 258 mmol/kg and 247 mmol/kg
T = 0 pH ([1]; approx. 2.56 mg/mL 25HC3S): 6.04 and 6.12 and 6.29 and 6.26
After Storage in Infusion Bag and Collection from Infusion Set % Remaining Compared to T = 0 [1, 2]: (100.4%)
After Storage in Infusion Bag and Collection from Infusion Set Concentration [1, 2]: 0.280 mg/mL
After Storage in Infusion Bag and Collection from Infusion Set Osmolality [1, 2]: 252 mmol/kg
After Storage in Infusion Bag and Collection from Infusion Set pH [1, 2]: 6.99
After Storage in Infusion Bag and Collection from Infusion Set % Remaining Compared to T = 0 [1, 3]: (100.0%)
After Storage in Infusion Bag and Collection from Infusion Set Concentration [1, 3]: 0.280 mg/mL
After Storage in Infusion Bag and Collection from Infusion Set Osmolality [1, 3]: 251 mmol/kg
After Storage in Infusion Bag and Collection from Infusion Set pH [1, 3]: 6.95
After Storage in Infusion Bag and Collection from Infusion Set % Remaining Compared to T = 0 [1, 4]: (100.0%)
After Storage in Infusion Bag and Collection from Infusion Set Concentration [1, 4]: 0.277 mg/mL
After Storage in Infusion Bag and Collection from Infusion Set Osmolality [1, 4]: 252 mmol/kg
After Storage in Infusion Bag and Collection from Infusion Set pH [1, 4]: 7.04
After Storage in Infusion Bag and Collection from Infusion Set % Remaining Compared to T = 0 [1, 5]: (100.0%)
After Storage in Infusion Bag and Collection from Infusion Set Concentration [1, 5]: 0.276 mg/mL
After Storage in Infusion Bag and Collection from Infusion Set Osmolality [1, 5]: 252 mmol/kg
After Storage in Infusion Bag and Collection from Infusion Set pH [1, 5]: 6.99
After Storage in Infusion Bag and Collection from Infusion Set % Remaining Compared to T = 0 [1, 6]: (100.2%)
After Storage in Infusion Bag and Collection from Infusion Set Concentration [1, 6]: 0.440 mg/mL
After Storage in Infusion Bag and Collection from Infusion Set Osmolality [1, 6]: 255 mmol/kg
After Storage in Infusion Bag and Collection from Infusion Set pH [1, 6]: 6.93
After Storage in Infusion Bag and Collection from Infusion Set % Remaining Compared to T = 0 [1, 7]: (100.2%)
After Storage in Infusion Bag and Collection from Infusion Set Concentration [1, 7]: 0.440 mg/mL
After Storage in Infusion Bag and Collection from Infusion Set Osmolality [1, 7]: 257 mmol/kg
After Storage in Infusion Bag and Collection from Infusion Set pH [1, 7]: 6.91
After Storage in Infusion Bag and Collection from Infusion Set % Remaining Compared to T = 0 [1, 8]: (100.0%)
After Storage in Infusion Bag and Collection from Infusion Set Concentration [1, 8]: 0.442 mg/mL
After Storage in Infusion Bag and Collection from Infusion Set Osmolality [1, 8]: 253 mmol/kg
After Storage in Infusion Bag and Collection from Infusion Set pH [1, 8]: 6.90
After Storage in Infusion Bag and Collection from Infusion Set % Remaining Compared to T = 0 [1, 9]: (100.2%)
After Storage in Infusion Bag and Collection from Infusion Set Concentration [1, 9]: 0.448 mg/mL
After Storage in Infusion Bag and Collection from Infusion Set Osmolality [1, 9]: 253 mmol/kg
After Storage in Infusion Bag and Collection from Infusion Set pH [1, 9]: 6.91
After Storage in Infusion Bag and Collection from Infusion Set % Remaining Compared to T = 0 [1, 10]: (100.4%)
After Storage in Infusion Bag and Collection from Infusion Set Concentration [1, 10]: 2.535 mg/mL
After Storage in Infusion Bag and Collection from Infusion Set Osmolality [1, 10]: 248 mmol/kg
After Storage in Infusion Bag and Collection from Infusion Set pH [1, 10]: 6.10
After Storage in Infusion Bag and Collection from Infusion Set % Remaining Compared to T = 0 [1, 11]: (100.4%)
After Storage in Infusion Bag and Collection from Infusion Set Concentration [1, 11]: 2.540 mg/mL
After Storage in Infusion Bag and Collection from Infusion Set Osmolality [1, 11]: 247 mmol/kg
After Storage in Infusion Bag and Collection from Infusion Set pH [1, 11]: 5.99
After Storage in Infusion Bag and Collection from Infusion Set % Remaining Compared to T = 0 [1, 12]: (101.4%)
After Storage in Infusion Bag and Collection from Infusion Set Concentration [1, 12]: 2.545 mg/mL
After Storage in Infusion Bag and Collection from Infusion Set Osmolality [1, 12]: 251 mmol/kg
After Storage in Infusion Bag and Collection from Infusion Set pH [1, 12]: 6.00
After Storage in Infusion Bag and Collection from Infusion Set % Remaining Compared to T = 0 [1, 13]: (99.2%)
After Storage in Infusion Bag and Collection from Infusion Set Concentration [1, 13]: 2.480 mg/mL
After Storage in Infusion Bag and Collection from Infusion Set Osmolality [1, 13]: 261 mmol/kg
After Storage in Infusion Bag and Collection from Infusion Set pH [1, 13]: 6.01
deviation of 25HC3S concentrations from the initial T=0 time point ([1]; 5% dextrose, after 24 hours at room temperature and at 2-8° C., and after elution through infusion sets): ≤ 1.4%
osmolality trend [1, 14]: no consistent trends over time in the infusion bag or after elution through the infusion sets
pH trend [1, 14]: no trends over time or after elution through the infusion sets
solution visual appearance ([1]; dextrose, all three concentrations, after 24 hours in bags and after elution): remained as clear and colorless solutions
muscle degeneration/regeneration, hemorrhage and inflammation in injected muscles (Hannover Wistar rats): incidence and severity similar in vehicle and drug-treated rats
